# Results taken from ChEMBL document CHEMBL1201862, “PubChem BioAssay data set” (2004).
# Active and inactive are the calls of the source.
# Legend:
# [1] = tested on: HeLa; experiment: HeLa cell cytotoxicity, dose response, cytotoxicity control for MITF activator project, CellTiter-Glo luminescence, cherry-pick samples (AID 540259); format: functional, cell-based; details: Homo sapiens
# [2] = molecular target: Glucose-6-phosphate 1-dehydrogenase (Homo sapiens, UniProt P11413); experiment: human G6PD enzyme inhibitors, dose response, selectivity assay for P. falciparum G6PD inhibitor project, biochemical, fluorescence (AID 504792); format: functional
# [3] = molecular target: T1, Rac GTPase-activating protein 1 (Homo sapiens, UniProt Q9H0H5); experiment: MgcRacGAP GTPase-activating activity inhibitors, confirmation, biochemical, ADP Hunter fluorescence, primary and confirmatory (AID 624330); format: functional
# T1 sequence (Q9H0H5 whole entry): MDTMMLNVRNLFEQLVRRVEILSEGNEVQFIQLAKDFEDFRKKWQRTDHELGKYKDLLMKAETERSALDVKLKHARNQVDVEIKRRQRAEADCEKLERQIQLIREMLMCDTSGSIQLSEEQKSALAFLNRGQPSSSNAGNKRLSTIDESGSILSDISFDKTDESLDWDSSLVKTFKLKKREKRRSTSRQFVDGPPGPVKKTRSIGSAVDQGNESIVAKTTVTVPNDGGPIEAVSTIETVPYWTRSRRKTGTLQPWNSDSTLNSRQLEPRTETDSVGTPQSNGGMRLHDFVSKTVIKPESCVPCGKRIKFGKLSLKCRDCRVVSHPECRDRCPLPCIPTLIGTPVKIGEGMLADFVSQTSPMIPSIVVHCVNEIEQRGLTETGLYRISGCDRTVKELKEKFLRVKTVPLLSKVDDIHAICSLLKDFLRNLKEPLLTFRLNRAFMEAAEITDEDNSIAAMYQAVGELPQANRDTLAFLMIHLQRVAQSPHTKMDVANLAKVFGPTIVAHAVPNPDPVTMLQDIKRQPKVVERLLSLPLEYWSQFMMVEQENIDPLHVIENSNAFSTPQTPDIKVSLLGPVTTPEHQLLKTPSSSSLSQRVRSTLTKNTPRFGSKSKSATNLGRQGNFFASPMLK
# [4] = molecular target: T2, Polyadenylate-binding protein 1 (Homo sapiens, UniProt P11940); experiment: PABP1 MLLE–PAM2 interaction inhibitors, dose response, miRNA deadenylation inhibitor project, biochemical, fluorescence polarization, Cy5-PAM2 peptide, secondary (AID 602260); format: functional; details: read-out: IC50_Mean
# [5] = molecular target: T2, Polyadenylate-binding protein 1; experiment: PABP1 MLLE–PAM2 binding inhibitor potency, dose response, biochemical, fluorescence polarization, FITC-PAM2 peptide (AID 602259); format: functional; details: read-out: IC50_Mean
# [6] = molecular target: T3, Protein skinhead-1 (Caenorhabditis elegans, UniProt P34707); format: functional
# T3 sequence (P34707 whole entry): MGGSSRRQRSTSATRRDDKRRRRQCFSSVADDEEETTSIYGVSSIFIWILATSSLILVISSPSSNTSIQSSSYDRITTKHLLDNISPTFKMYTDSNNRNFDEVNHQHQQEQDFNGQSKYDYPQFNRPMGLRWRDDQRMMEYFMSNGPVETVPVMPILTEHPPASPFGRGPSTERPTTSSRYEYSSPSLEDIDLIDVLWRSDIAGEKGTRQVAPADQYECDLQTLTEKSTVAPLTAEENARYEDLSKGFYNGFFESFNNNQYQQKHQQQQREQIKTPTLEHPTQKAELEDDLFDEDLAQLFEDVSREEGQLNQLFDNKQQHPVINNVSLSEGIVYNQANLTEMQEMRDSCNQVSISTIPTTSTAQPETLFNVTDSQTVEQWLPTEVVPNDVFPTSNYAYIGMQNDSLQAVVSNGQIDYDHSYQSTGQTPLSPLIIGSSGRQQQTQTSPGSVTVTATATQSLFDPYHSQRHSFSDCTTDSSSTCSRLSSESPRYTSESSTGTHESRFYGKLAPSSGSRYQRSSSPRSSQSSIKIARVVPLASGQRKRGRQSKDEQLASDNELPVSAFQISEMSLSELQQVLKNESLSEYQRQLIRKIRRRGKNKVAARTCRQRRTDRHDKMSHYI
# [7] = molecular target: T4, Apoptotic protease-activating factor 1 (Homo sapiens, UniProt O14727); format: functional
# T4 sequence (O14727 whole entry): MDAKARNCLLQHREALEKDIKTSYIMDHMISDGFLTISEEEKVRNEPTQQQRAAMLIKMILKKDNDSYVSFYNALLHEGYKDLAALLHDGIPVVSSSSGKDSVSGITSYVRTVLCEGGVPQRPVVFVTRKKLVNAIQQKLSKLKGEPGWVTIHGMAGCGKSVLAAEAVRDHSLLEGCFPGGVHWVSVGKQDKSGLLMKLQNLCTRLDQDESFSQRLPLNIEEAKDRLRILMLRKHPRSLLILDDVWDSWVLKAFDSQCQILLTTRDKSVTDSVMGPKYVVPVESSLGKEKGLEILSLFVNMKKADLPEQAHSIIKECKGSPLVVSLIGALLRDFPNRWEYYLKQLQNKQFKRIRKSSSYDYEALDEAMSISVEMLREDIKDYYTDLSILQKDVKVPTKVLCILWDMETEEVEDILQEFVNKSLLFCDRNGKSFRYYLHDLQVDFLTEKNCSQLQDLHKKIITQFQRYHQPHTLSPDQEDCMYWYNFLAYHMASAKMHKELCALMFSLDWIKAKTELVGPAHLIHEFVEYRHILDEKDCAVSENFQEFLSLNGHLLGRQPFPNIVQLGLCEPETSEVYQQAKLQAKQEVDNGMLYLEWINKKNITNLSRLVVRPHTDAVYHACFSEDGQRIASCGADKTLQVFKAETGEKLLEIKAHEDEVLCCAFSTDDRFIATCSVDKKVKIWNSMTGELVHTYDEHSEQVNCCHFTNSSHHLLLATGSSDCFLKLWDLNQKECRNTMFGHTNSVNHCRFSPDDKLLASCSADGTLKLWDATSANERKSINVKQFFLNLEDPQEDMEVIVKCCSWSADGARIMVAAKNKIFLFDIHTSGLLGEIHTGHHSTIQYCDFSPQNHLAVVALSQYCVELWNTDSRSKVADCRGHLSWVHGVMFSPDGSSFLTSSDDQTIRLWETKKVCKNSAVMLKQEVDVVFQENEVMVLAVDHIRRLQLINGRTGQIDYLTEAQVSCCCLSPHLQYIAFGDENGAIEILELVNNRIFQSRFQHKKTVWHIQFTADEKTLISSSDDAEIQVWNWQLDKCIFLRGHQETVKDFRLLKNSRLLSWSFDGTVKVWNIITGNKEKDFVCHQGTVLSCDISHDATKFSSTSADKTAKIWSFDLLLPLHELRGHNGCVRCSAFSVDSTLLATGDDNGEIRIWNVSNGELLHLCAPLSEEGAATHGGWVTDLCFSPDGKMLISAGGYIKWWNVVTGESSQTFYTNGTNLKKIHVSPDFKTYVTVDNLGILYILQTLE
# [8] = tested on: INS1; experiment: beta cell apoptosis inhibitors, cytokine rescue, dose response, luminescence, retest (AID 449756); format: functional, cell-based; details: Rattus norvegicus;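 note: cell death triggered by IL-1 beta plus TNF-alpha plus IFN-gamma mixture; protective hits raise ATP signal compared with cytokine alone wells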
# [9] = molecular target: Beta-2 adrenergic receptor (Homo sapiens, UniProt P07550); experiment: beta2AR agonists driving receptor internalization, dose response, cell-based, FAP fluorogen, flow cytometry, cherry pick 1 (AID 588763); format: functional
# [10] = tested on: BJ; experiment: cytotoxicity toward Ras-transformed BJeLR fibroblasts, dose response, cell-based, alamar blue fluorescence, cherrypicked samples (AID 2631); format: functional; details: Homo sapiens;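 note: confirmatory dose-response assay in RAS-dependent BJ fibroblasts engineered with TERT, LT and ST, with cytotoxicity read by fluorescence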
# [11] = Luminescence Cell-Based Dose Retest to Confirm Inhibitors of Cancer Stem Cells. [Related pubchem assays (depositor defined):AID2717, AID2721]; format: functional; details: Homo sapiens
# [12] = tested on: BJ; experiment: cells; format: functional, cell-based; details: Homo sapiens
# [13] = tested on: BJ; experiment: cytotoxicity toward BJ-TERT fibroblasts, dose response, cell-based, RAS-independent, luminescence (AID 1933); format: functional; details: Homo sapiens
# [14] = tested on: BJ; experiment: cytotoxicity toward BJ-TERT-LT-ST fibroblasts, dose response, cell-based, RAS-independent, luminescence (AID 1935); format: functional; details: Homo sapiens;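 note: BJ fibroblasts immortalized with TERT plus LT and ST oncogenes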
# [15] = cytotoxicity toward DRD oncogenic fibroblasts, dose response, cell-based, non-viral oncogenic, luminescence (AID 1934); format: functional; details: Homo sapiens
# [16] = molecular target: T5, fMet-Leu-Phe receptor (Homo sapiens, UniProt P21462); experiment: FPR ligands, dose response (AID 519); format: functional
# T5 sequence (P21462 whole entry): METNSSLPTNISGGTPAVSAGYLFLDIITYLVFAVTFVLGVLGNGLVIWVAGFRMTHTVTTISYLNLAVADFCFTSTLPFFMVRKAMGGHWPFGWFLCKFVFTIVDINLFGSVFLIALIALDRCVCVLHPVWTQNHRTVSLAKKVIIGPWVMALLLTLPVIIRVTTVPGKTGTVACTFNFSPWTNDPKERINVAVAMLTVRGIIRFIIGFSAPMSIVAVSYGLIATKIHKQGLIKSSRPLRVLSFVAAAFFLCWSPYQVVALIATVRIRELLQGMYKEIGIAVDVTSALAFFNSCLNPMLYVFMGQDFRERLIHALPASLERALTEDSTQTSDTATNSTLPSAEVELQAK
# [17] = molecular target: Cytochrome P450 2D6 (Homo sapiens, UniProt P10635);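 note: CYP2D6 member of a cytochrome P450 panel assay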
# [18] = molecular target: Cytochrome P450 2C19 (Homo sapiens, UniProt P33261); experiment: Cytochrome panel assay with activity outcomes. Panel member name: p450-cyp2c19 Compounds with AC50 equal or less than 10 uM are considered active; format: functional; details: read-out: AC50
# [19] = molecular target: T6, Tyrosine-protein kinase JAK3 (Homo sapiens, UniProt P52333); format: functional
# T6 sequence (P52333 whole entry): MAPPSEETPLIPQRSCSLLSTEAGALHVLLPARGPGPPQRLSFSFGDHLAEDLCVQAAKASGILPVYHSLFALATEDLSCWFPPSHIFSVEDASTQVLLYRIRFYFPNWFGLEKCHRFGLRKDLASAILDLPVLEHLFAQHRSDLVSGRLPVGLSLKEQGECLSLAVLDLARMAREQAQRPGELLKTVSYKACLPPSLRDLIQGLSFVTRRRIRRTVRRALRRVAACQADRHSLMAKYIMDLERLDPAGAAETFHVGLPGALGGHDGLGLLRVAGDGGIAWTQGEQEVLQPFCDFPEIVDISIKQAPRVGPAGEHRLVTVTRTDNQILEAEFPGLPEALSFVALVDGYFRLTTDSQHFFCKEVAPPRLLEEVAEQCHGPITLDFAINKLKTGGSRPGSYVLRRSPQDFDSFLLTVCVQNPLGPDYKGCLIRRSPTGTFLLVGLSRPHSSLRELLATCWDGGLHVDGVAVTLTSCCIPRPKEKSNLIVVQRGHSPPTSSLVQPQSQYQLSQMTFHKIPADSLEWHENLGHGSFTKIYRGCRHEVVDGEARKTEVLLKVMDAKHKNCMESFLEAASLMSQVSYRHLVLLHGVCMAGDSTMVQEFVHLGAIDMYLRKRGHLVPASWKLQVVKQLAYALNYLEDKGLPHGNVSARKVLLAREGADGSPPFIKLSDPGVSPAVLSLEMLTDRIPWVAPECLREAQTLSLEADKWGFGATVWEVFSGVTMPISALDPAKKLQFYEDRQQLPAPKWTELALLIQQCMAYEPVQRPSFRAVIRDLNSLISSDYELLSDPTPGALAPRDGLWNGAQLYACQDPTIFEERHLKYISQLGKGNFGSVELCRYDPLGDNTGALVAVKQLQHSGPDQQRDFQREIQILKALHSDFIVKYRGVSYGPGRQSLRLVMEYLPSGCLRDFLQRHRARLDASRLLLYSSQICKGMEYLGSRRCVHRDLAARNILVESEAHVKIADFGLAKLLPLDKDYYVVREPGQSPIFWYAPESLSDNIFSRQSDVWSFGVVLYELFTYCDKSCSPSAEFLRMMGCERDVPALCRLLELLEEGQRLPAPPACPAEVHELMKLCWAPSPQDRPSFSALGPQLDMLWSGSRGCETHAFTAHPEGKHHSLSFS
# [20] = molecular target: T7, Testis-specific serine/threonine-protein kinase 2 (Homo sapiens, UniProt Q96PF2); format: functional;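 note: part of the Navigating the Kinome panel, target entry STK22B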
# T7 sequence (Q96PF2 whole entry): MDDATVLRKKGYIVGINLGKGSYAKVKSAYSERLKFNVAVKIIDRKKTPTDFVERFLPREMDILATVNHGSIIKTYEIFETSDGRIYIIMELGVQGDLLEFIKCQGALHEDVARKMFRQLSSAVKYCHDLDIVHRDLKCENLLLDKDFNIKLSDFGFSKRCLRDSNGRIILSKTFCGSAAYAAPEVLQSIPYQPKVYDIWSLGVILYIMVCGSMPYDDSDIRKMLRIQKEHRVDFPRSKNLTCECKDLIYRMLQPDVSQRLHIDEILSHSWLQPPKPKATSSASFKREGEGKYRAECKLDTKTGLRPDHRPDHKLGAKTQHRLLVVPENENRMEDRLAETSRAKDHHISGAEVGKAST
# Sequence of Beta-2 adrenergic receptor (P07550 whole entry): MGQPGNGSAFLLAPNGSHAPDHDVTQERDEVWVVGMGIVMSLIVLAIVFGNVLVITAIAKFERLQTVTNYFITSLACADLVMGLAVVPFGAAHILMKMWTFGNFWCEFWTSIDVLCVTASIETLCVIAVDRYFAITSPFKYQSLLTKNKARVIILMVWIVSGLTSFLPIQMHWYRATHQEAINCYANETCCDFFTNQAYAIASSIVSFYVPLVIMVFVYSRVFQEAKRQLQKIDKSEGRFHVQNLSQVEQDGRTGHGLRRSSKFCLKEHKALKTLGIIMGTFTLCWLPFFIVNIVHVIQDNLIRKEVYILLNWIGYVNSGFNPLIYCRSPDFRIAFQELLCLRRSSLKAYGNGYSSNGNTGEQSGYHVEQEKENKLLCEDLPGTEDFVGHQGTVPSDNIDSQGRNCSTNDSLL
# Sequence of Glucose-6-phosphate 1-dehydrogenase (P11413 whole entry): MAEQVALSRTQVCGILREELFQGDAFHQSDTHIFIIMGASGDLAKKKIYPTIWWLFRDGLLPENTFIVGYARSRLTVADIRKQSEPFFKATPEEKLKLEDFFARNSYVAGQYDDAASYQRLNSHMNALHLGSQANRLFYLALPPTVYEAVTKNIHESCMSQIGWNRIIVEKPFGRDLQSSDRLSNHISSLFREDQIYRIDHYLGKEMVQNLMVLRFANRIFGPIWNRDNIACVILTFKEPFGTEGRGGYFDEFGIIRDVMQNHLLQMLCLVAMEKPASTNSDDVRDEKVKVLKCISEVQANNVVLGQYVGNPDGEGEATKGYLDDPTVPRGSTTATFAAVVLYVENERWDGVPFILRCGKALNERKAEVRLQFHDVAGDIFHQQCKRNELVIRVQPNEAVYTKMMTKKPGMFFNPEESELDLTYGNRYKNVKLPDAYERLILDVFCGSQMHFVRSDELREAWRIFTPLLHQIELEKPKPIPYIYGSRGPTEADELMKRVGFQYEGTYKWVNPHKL
# T2 sequence (P11940 whole entry): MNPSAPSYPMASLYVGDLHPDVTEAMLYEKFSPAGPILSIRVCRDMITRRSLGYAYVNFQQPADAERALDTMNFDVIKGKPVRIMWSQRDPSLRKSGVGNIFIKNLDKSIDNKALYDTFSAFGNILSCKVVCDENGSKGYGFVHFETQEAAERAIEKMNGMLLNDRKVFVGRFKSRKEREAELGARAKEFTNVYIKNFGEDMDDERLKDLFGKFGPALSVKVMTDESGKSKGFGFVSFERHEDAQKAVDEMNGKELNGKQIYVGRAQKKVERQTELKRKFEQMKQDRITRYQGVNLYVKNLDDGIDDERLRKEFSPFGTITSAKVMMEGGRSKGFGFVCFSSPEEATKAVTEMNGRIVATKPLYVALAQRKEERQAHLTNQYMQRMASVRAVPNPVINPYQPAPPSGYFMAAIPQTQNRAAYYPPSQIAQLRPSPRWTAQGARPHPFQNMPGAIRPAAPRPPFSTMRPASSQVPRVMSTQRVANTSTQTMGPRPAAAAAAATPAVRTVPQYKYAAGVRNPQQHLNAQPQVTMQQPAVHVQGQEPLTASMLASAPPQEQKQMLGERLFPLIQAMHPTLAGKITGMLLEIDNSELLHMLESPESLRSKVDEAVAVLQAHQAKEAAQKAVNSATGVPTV
# Sequence of Cytochrome P450 2C19 (P33261 whole entry): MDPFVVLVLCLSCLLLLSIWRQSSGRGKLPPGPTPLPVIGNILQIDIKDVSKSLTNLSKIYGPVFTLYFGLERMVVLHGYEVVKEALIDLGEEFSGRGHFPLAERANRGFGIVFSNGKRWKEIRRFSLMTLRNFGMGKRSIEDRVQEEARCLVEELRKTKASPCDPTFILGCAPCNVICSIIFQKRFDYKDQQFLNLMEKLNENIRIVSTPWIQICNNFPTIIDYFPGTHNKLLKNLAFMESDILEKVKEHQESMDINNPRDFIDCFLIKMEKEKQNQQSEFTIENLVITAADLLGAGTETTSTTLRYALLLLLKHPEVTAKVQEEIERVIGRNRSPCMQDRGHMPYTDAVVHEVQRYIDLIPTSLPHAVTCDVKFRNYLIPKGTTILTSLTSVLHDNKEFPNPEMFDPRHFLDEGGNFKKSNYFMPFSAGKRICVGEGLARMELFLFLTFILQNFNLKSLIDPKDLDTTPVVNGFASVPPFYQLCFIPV
# Sequence of Cytochrome P450 2D6 (P10635 whole entry): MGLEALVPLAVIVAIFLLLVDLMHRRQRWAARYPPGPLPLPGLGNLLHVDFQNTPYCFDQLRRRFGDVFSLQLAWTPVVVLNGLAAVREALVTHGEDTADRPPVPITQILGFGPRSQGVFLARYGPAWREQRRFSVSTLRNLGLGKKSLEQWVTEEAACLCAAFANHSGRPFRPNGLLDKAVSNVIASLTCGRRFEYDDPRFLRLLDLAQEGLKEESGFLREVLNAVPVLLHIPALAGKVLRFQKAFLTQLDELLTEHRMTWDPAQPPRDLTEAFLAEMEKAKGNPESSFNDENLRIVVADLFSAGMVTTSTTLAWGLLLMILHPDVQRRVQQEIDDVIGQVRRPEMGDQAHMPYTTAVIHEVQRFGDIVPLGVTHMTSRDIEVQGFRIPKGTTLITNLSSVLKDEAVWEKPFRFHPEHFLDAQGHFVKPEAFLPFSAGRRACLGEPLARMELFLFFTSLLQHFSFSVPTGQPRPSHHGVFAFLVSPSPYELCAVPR
smiles,measurement,setting,value
COc1ccc(/C=C/c2nc3ccccc3n2Cc2ccc(OC)c(OC)c2)cc1,AC50,[1],37 µM (active)
same,IC50,[2],> 80 µM (inactive)
c1cc(CNc2ccc3c(c2)OCO3)ccn1,IC50,[3],63.8 µM (active)
same,IC50,[4],> 66 µM (inactive)
same,IC50,[5],23.5 µM (inactive)
same,IC50,[2],> 80 µM (inactive)
same,IC50,[6],> 100 µM (inactive)
CCCCCn1cc[n+](C2=C([N-]S(=O)(=O)c3ccc(Cl)cc3)C(=O)c3ccccc3C2=O)c1,IC50,[7],30.2 µM (active)
same,AC50,[8],3.09 µM (active)
Cc1cc(C)n2nc(C(=O)Nc3cccc(S(=O)(=O)N(C)c4ccccc4)c3)nc2n1,EC50,[9],0.0342 µM (active)
CN[C@H]1CCc2cc(OC)c(OC)c(OC)c2-c2ccc(N(C)CC(OC)OC)c(=O)cc21,EC50,[10],0.578 µM (inconclusive)
same,AC50,[11],1.86 µM (active)
same,EC50,[12],21.4 µM (active)
same,EC50,[13],3.42 µM (active)
same,EC50,[14],2.98 µM (inconclusive)
same,EC50,[15],2.86 µM (active)
CCc1ccccc1N(C)S(=O)(=O)c1ccc2ncc(C(=O)O)c(O)c2c1,EC50,[9],7.23 µM (active)
O=C(O)C1CCCCC1C(=O)Nc1ccccc1Cl (stereo not drawn),Ki,[16],> 66.7 µM (inactive)
same,AC50,[17],inconclusive
same,AC50,[18],2.24 µM (inconclusive)
Cc1ccc(O)c(NC(=O)c2cccc(NC(=O)c3ccco3)c2)c1,EC50,[9],0.132 µM (active)
Cc1[nH]nc2ccc(-c3cncc(OCC(N)Cc4ccccc4)c3)cc12 (stereo not drawn),Ki,[19],> 1.58 µM (inactive)
same,Ki,[20],> 1.58 µM (inactive)
